Assay results from patent US6262023A, “WD-40 derived peptides and uses thereof” (The Board of Trustees of the Leland Stanford Junior …, priority 1995, dated 2001).

Assays:
[1] = system: PKC-mediated germinal vesicle breakdown (GVBD) in Xenopus oocytes; assay: PKC-mediated Xenopus oocyte maturation (germinal vesicle breakdown, GVBD) after peptide microinjection; type: cell-based
Description: Exposure to insulin induces maturation in Xenopus oocytes via a PKC-dependent pathway (Smith, et al., 1992). The maturation response may be quantified by monitoring the appearance of a white spot in the animal hemisphere of the oocyte, indicating germinal vesicle breakdown (GVBD) and maturation. To assess the effects of RACK1 WD-40-derived peptides on insulin-induced PKC-mediated maturation, 50 nl of a 20 mM NaCl solution containing the indicated peptides [peptide I (SEQ ID NO:1; .circle-solid.), peptide rVI (SEQ ID NO:7; .box-solid.), or injection solution (.quadrature.)] […] One hour following the peptide injections, the oocytes were exposed to a solution containing insulin (8.25 μg/ml) for 2 minutes (t=0). 10-15 oocytes were used for each sample.
The data, representative of three independent experiments, are expressed as the percent of oocytes with GVBD following insulin exposure and are plotted as a function of time in FIG. 5.

PKC = PKC autophosphorylation; type: biochemical, rat; conditions: 10 μM peptide; no PS, DG, calcium
Description: Rat brain PKC (~10 nM) was incubated with mild agitation in a final volume of 250 μl of overlay buffer, as in Example 1 either with anti-βPKC pseudosubstrate antibodies (1:10 dilution, Life Technologies, Gaithersburg, Md.) or with the indicated peptide (10 μM). Where indicated, PS (50 μg/ml), DG (0.8 μg/ml) and CaCl2 (1 mM) were also added. The amount of autophosphorylation was determined after 2 hours for the reaction with the anti-pseudosubstrate antibodies, or after 15 minutes for the other samples. 50 μl of a buffer comprised of 20 mM Tris-HCl (pH 7.5), 20 mM MgCl2, 20 μM ATP and 5 μci/ml [γ-^32 P]ATP. The mixture was incubated for 15 minutes at room temperature and the reaction was stopped by adding 60 μl sample buffer (see Example 9). The samples were then boiled for 10 minutes, loaded onto a 10% SDS-PAGE mini gel and electrophoresed. The gel was fixed with 50% methanol and 10% acetic acid for 1 hour, and the autophosphorylation of PKC was determined by autoradiography.

βPKC = βPKC (Rattus norvegicus, UniProt P68403); assay: Sensitivity of βPKC to Arg-C endopeptidase (nicking); type: biochemical; set-up: All the solutions contained 5 nM rat brain PKC in peptide overlay buffer; from tissue; host or cells: rat brain; conditions: 2.5 μg/ml PS and 50 μM CaCl2; peptide 10 μM; Arg-C 5 units/ml
Sequence of βPKC (P68403 whole entry, the tested form may be a part): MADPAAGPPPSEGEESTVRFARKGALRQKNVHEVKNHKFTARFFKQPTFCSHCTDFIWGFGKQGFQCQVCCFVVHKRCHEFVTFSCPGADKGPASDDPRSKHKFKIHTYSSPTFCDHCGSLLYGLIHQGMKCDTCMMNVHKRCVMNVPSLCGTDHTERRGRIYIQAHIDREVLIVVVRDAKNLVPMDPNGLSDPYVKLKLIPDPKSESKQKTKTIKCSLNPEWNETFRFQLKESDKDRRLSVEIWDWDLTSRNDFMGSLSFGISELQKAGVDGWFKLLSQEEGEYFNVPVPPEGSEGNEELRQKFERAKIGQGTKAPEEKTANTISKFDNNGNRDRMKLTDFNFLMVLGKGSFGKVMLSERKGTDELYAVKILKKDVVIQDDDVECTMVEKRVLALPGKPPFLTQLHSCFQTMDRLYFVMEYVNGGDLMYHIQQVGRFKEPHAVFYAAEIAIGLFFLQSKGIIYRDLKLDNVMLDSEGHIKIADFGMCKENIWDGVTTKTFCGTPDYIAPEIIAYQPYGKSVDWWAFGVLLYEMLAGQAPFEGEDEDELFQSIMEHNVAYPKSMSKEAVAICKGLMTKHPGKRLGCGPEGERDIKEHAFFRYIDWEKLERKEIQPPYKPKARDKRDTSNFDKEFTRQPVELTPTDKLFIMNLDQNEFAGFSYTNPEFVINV
From the text: Upon activation of PKC, a pseudosubstrate autoinhibitory sequence at the N-terminus of the molecule dissociates from the catalytic site and becomes sensitive to endopeptidase Arg-C (Orr, et al.). In the absence of PKC activators, exposure of the 80 kDa βPKC to endopeptidase Arg-C has no effect on the enzyme (see FIG. 7, lane 1). In the presence of the PKC activators PS, DG and calcium, however, exposure of βPKC to Arg-C results in a "nicking" of the PKC (i.e. limited proteolysis generating a 78 kDa fragment and several small fragments (see FIG. 7, lane 2)). Continued exposure to Arg-C results in the disappearance of βPKC (Orr, et al.). The present experiment tests whether peptides derived from the WD-40 region of RACK1 alter the sensitivity of βPKC to endopeptidase Arg-C.
The methods used to assay Arg-C sensitivity are a modification of methods described by Orr, et al. Rat brain PKC (~5 nM) was incubated at room temperature in 500 μl of 20 mM Tris-HCl buffer (pH 7.5) alone or with Arg-C (5 units/ml) in the presence or absence of the indicated peptides (final concentration 10 μM or as indicated), PS, DG, and calcium (as indicated). 50 μl aliquots were removed into 20 μl of sample buffer during the reaction as indicated (samples in all the lanes were incubated for 30 minutes, except lanes 5, and 6, which were incubated for 5 and 15 minutes, respectively). The samples were boiled for 10 minutes at 80° C. and loaded onto 8% SDS-PAGE. βPKC was detected by Western blot analysis using anti-βPKC antibodies as described in Examples 6 and 8.
PKC was incubated for the indicated time alone (lane 1) or in the presence of Arg-C (lanes 2-9), with DG (0.8 μg/ml), PS (50 μg/ml) and CaCl2 (1 mM; lane 2), with PS (50 μg/ml) and CaCl2 (1 mM; lane 3), with PS (2.5 μg/ml) and CaCl2 (50 μM; lane 4); with PS (2.5 μg/ml), CaCl2 (50 μM) and with either peptide rVI (SEQ ID NO:7; 10 μM; lanes 5-7), control peptide (SEQ ID NO: 9; lane 8) or with peptide I (SEQ ID) NO:1; lane 9).

peptide I: 15-residue peptide homologous to a sequence in the sixth WD-40 repeat of RACK1; PKC antagonist (KGDYEKILVALCGGN)
plateau of % GVBD following insulin exposure ([1]; 50 nl of 50 μM peptide microinjected, insulin 8.25 μg/ml): 45-50 % GVBD | dose dependence of effect on GVBD ([1]; between 5 μm-500 μM): dose-dependent | fraction of oocytes exposed to insulin that reach maturation ([1]; peptide microinjected, insulin): 45-50% | induction of PKC autophosphorylation in the absence of PKC activators (PKC): Neither peptide I nor control peptide induced PKC autophosphorylation | nicking of βPKC by Arg-C (78 kDa fragment) at low concentrations of activators (βPKC): nicking of βPKC did not occur
